Experimental data from patent publication US20240261224A1, “FORMULATION OF A PAN-JAK INHIBITOR” (KINASET THERAPEUTICS, INC., priority 2022, published 2024).
Where “and” joins values, the source holds several entries; their conditions need not be identical. Identical values can stand only once.

Key:
[1] = 13-week inhalation toxicology study, rat model; type: in vivo; conditions: in vivo, inhaled or intranasal, rat; for AUC(0-t): AUC0-24
Method: (§1) Lactose/MgSt-based formulations of Compound I were evaluated during a 13-week inhalation toxicology study using a rat model.
(§2) The NOAEL was assigned to the highest dose study (11.9 mg/kg/day).

[2] = test system: rat; assay: 13-week inhalation toxicology study, rat model; type: in vivo; conditions: for AUC0-24: rat, in vivo, inhaled or intranasal
Method: as §1, §2

[3] = test system: fractional exhaled nitric oxide (FeNO); assay: Phase 1 Part 3: FeNO reduction in moderate to severe asthma on background ICS/LABA; type: in vivo, human; conditions: for Mean Placebo-Corrected % Change from Day 1 Pre-Dose or from Patient's Baseline (FeNO): 4 mg BID (n = 5), Baseline FeNO >35 ppb and blood eosinophils >250 cells/μL; for % subjects achieving FeNO level <25 ppb on Day 10: 4.0 mg BID
Method: A status summary of the phase 1 clinical trial recruitment is shown below in Table 18. Capsules filled with blend 2a were used to achieve a 0.6 mg target dose of Compound I (0.2 mg capsules×3). Capsules filled with blend 4 were used to achieve 2.0 mg, 4.0 mg, 6.0 mg, 8.0 mg, and 12.0 mg target doses of Compound I (2.0 mg capsule×1; 4.0 mg capsule×1; 2.0 mg capsules×3; 4.0 mg capsules×2; and 4.0 mg capsules×3, respectively). Twice daily dosing (BID) was achieved by repeating the preceding regime. For example, an 8.0 mg BID dosing regime is achieved by administering two doses of 4.0 mg capsules×2.
Particular FeNO reduction data from FIG. 9 is highlighted below in Table 25. […] More specifically, subjects with Day 1 pre-dose FeNO levels between 33 and 280 ppb reported reductions greater than 20% by Day 10 and subjects with Day 1 pre-dose FeNO levels ranging from 33 to 118 ppb recorded levels less than 25 ppb by Day 10.
Part 3 involved the administration of a single dose regimen (4 mg BID), to subjects (17 active:6 placebo) with moderate to severe asthma treated with background ISC/LABA therapy, over a 10-day period. Blood samples were collected to enable the measurement of KN-002 concentrations in plasma. The resultant data was used to determine the pharmacokinetic parameters at Day 10 representing the Day on which the final dose was received.

[4] = test system: serum eosinophil count; assay: Phase 1 Part 3 serum (whole blood) differential eosinophil count; type: in vivo, human; conditions: 4 mg BID
Method: Whole blood hematology samples were collected prior to dosing in all patients at Day 1 (baseline) and on Day 10. Parameters including whole blood absolute and percent differential eosinophil count were determined and the resultant data was used to determine change from baseline, mean change from baseline, and mean placebo-corrected change from baseline (Compound I vs placebo).

[5] = molecular target: T1, JAK3 (Homo sapiens, UniProt P52333); conditions: cited from earlier work
T1 sequence (P52333 1-1124): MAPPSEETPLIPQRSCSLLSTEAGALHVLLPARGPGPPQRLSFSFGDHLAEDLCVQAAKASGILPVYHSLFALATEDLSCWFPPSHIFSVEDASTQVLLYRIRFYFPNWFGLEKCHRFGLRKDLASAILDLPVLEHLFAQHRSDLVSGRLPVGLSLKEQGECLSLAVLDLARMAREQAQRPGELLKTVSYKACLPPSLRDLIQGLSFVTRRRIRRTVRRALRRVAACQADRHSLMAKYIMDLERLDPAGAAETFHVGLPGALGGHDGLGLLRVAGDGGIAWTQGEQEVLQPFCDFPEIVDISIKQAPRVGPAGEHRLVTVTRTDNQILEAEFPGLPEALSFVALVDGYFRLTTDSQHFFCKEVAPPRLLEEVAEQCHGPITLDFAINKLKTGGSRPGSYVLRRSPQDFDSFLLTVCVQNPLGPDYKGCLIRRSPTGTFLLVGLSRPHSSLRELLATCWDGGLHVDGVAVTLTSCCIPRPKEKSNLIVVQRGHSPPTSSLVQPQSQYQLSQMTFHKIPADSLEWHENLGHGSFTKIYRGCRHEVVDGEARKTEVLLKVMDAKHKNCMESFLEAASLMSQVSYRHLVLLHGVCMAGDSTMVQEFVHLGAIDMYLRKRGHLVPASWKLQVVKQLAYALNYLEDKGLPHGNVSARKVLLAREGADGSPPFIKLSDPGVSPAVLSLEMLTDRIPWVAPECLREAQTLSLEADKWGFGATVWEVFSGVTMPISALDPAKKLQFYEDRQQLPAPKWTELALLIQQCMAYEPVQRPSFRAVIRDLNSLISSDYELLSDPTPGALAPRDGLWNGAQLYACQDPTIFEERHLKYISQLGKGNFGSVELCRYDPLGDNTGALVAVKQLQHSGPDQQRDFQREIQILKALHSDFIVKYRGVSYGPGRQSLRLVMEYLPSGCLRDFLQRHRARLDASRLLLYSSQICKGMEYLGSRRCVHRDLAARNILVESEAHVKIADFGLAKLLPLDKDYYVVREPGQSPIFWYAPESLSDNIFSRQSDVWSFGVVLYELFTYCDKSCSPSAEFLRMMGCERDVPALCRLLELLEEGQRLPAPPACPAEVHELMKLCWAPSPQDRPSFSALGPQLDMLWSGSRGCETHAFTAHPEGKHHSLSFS

[6] = Day 10, Mean of active subjects (n = 6)
[7] = Day 10, individual active subjects 13026, 13027, 13038, 13073, 13095, 13097 (c1-c6)

Cn1c(=O)n([C@H]2CCCN(C(=O)CC#N)C2)c2nc(-c3cnn4ccccc34)ccc21 [Compound I, (S)-3-(3-(1-methyl-2-oxo-5-(pyrazolo[1,5-a]pyridine-3-yl)-1H-imidazo[4,5-b]pyridine-3(2H)-yl)piperidin-1-yl)-3-oxopropanenitrile]
NOAEL at 13 weeks ([1]; 13-week inhalation, highest dose): 11.9 mg/kg/day
AUC(0-t) ([1]; 1.3 mg/kg/day): 339 ng·h/mL
AUC(0-t) ([1]; 4 mg/kg/day): 850 ng·h/mL
AUC(0-t) ([1]; 12 mg/kg/day): 2060 ng·h/mL
AUC0-24 ([2]; 1.3 mg/kg/day): 197 ng·h/mL
AUC0-24 ([2]; 4 mg/kg/day): 738 ng·h/mL
AUC0-24 ([2]; 12 mg/kg/day): 1950 ng·h/mL
MMAD ([2]; target delivered dose 1.3 mg/kg/day (low dose)): 1.9 μm
MMAD ([2]; target delivered dose 4.0 mg/kg/day (mid dose)): 2.0 μm
MMAD ([2]; target delivered dose 12.0 mg/kg/day (high dose)): 2.1 μm
Mean Placebo-Corrected % Change from Day 1 Pre-Dose or from Patient's Baseline (FeNO) ([3]; Day 10 + 3 hrs): −37%
Mean Placebo-Corrected % Change from Day 1 Pre-Dose or from Patient's Baseline (FeNO) ([3]; Day 10 + 6 hrs): −43%
Mean Placebo-Corrected % Change from Day 1 Pre-Dose or from Patient's Baseline (FeNO) ([3]; Day 10 + 12 hrs): −47%
Mean Placebo-Corrected % Change from Day 1 Pre-Dose or from Patient's Baseline (FeNO) ([3]; Day 10 mean): −43%
Mean Placebo-Corrected % Change from Day 1 Pre-Dose or from Patient's Baseline (FeNO) ([3]; Day 10 pre-dose): −44%
% subjects achieving FeNO level <25 ppb on Day 10 ([3]; ITT): 59%
Mean placebo-corrected % FeNO reduction from Day 1 pre-dose ([3]; 4 mg BID, ITT (n = 17), Day 10 + 3 hours): −13.7%
Mean placebo-corrected % FeNO reduction from Day 1 pre-dose ([3]; 4 mg BID, ITT (n = 17), Day 10 + 6 hours): −24.0%
Mean placebo-corrected % FeNO reduction from Day 1 pre-dose ([3]; 4 mg BID, ITT (n = 17), Day 10 + 12 hours): −36.3%
Mean placebo-corrected % FeNO reduction from Day 1 pre-dose ([3]; 4 mg BID, ITT (n = 17), Day 10 mean): −24.2%
Mean placebo-corrected % FeNO reduction from Day 1 pre-dose ([3]; 4 mg BID, ITT (n = 17), Day 10 pre-dose): −22.9%
% subjects achieving FeNO level <25 ppb on Day 10 ([3]; PP (excludes Day 1 pre-dose FeNO <30 ppb)): 52%
Mean placebo-corrected % FeNO reduction from Day 1 pre-dose ([3]; 4 mg BID, PP (n = 15, excludes Day 1 pre-dose FeNO <30 ppb), Day 10 + 3 hours): −24.8%
Mean placebo-corrected % FeNO reduction from Day 1 pre-dose ([3]; 4 mg BID, PP (n = 15, excludes Day 1 pre-dose FeNO <30 ppb), Day 10 + 6 hours): −33.3%
Mean placebo-corrected % FeNO reduction from Day 1 pre-dose ([3]; 4 mg BID, PP (n = 15, excludes Day 1 pre-dose FeNO <30 ppb), Day 10 + 12 hours): −37.0%
Mean placebo-corrected % FeNO reduction from Day 1 pre-dose ([3]; 4 mg BID, PP (n = 15, excludes Day 1 pre-dose FeNO <30 ppb), Day 10 mean): −31.9%
Mean placebo-corrected % FeNO reduction from Day 1 pre-dose ([3]; 4 mg BID, PP (n = 15, excludes Day 1 pre-dose FeNO <30 ppb), Day 10 pre-dose): −32.7%
FeNO reductions by Day 10 ([3]; 4 mg BID, subjects with Day 1 pre-dose FeNO levels between 33 and 280 ppb): greater than 20%
FeNO levels by Day 10 ([3]; 4 mg BID, subjects with Day 1 pre-dose FeNO levels ranging from 33 to 118 ppb): less than 25 ppb
Mean placebo-corrected change in FeNO from Day 1 pre-dose, blood eosinophil subgroup ([3]; Blood eosinophil cut-off ≥0.15 × 10^9/L (n = 16), Day 10 + 3 hours): −26
Mean placebo-corrected change in FeNO from Day 1 pre-dose, blood eosinophil subgroup ([3]; Blood eosinophil cut-off ≥0.15 × 10^9/L (n = 16), Day 10 + 6 hours): −35
Mean placebo-corrected change in FeNO from Day 1 pre-dose, blood eosinophil subgroup ([3]; Blood eosinophil cut-off ≥0.15 × 10^9/L (n = 16), Day 10 + 12 hours): −52
Mean placebo-corrected change in FeNO from Day 1 pre-dose, blood eosinophil subgroup ([3]; Blood eosinophil cut-off ≥0.15 × 10^9/L (n = 16), Day 10 mean): −37
Mean placebo-corrected change in FeNO from Day 1 pre-dose, blood eosinophil subgroup ([3]; Blood eosinophil cut-off ≥0.15 × 10^9/L (n = 16), Day 10 pre-dose): −34
Mean placebo-corrected change in FeNO from Day 1 pre-dose, blood eosinophil subgroup ([3]; Blood eosinophil cut-off ≥0.3 × 10^9/L (n = 11), Day 10 + 3 hours): −44
Mean placebo-corrected change in FeNO from Day 1 pre-dose, blood eosinophil subgroup ([3]; Blood eosinophil cut-off ≥0.3 × 10^9/L (n = 11), Day 10 + 6 hours): −54
Mean placebo-corrected change in FeNO from Day 1 pre-dose, blood eosinophil subgroup ([3]; Blood eosinophil cut-off ≥0.3 × 10^9/L (n = 11), Day 10 + 12 hours): −75
Mean placebo-corrected change in FeNO from Day 1 pre-dose, blood eosinophil subgroup ([3]; Blood eosinophil cut-off ≥0.3 × 10^9/L (n = 11), Day 10 mean): −57
Mean placebo-corrected change in FeNO from Day 1 pre-dose, blood eosinophil subgroup ([3]; Blood eosinophil cut-off ≥0.3 × 10^9/L (n = 11), Day 10 pre-dose): −53
Active subjects with improvements (decreases) from baseline in whole blood eosinophil count ([4]; Day 10 (5/6)): 83%
Serum absolute differential eosinophil count, % Change from screening [4, 6]: −29%
Serum absolute differential eosinophil count, Change from Day 1 pre-dose [4, 6]: −0.14 cells 10^9/L
Serum absolute differential eosinophil count, Mean placebo-corrected change ([4]; Day 10, active (n = 6) vs placebo (n = 2)): −0.11 cells 10^9/L
Serum absolute differential eosinophil count, % Change from screening [4, 7]: −45% and +54% and −43% and −4% and −32% and −74%
Serum absolute differential eosinophil count, Change from Day 1 pre-dose [4, 7]: −0.30 cells 10^9/L and 0.13 cells 10^9/L and −0.13 cells 10^9/L and −0.03 cells 10^9/L and −0.14 cells 10^9/L and −0.34 cells 10^9/L
Serum absolute differential eosinophil count, Day 10 level ([4]; Mean of active subjects (n = 6)): 0.34 cells 10^9/L
Serum absolute differential eosinophil count, Day 10 level ([4]; individual active subjects 13026, 13027, 13038, 13073, 13095, 13097 (c1-c6)): 0.36 cells 10^9/L and 0.37 cells 10^9/L and 0.17 cells 10^9/L and 0.74 cells 10^9/L and 0.30 cells 10^9/L and 0.12 cells 10^9/L
Inhibition of JAK3 [5]: potent inhibitor
